This is an account of results in patent US20210198248A1, “FUMARATE SALT OF 5-((5-METHYL-2-((3,4,5-[…])AMINO)PYRIMIDIN-4-YL)AMINO)-BENZO[D]OXAZOL-2(3H)-ONE” (ASTRAZENECA AB, priority 2018, published 2021).

The nature of data set [1]: Dissolution measurements, μ-DISS Profiler, micronized material. The class given is physicochemical. On the procedure:
In general, 0.5 mg of the micronized material was added to the stirred dissolution media (20 mL 0.1 M acetate buffer, pH 4.5, 200 rpm, at 37° C.). The dissolution profiles were generated by measuring the UV absorbance at 280 nm wavelength. The material of interest was evaluated in triplicate.
The particle size of the materials was reduced by micronisation, as follows, using a 2″ Spiral Jet Mill or a 1″ MCOne fluid Jet Mill followed by subsequent particle size distribution (PSD) measurements.
Test substance was fed into the jet mill chamber, via a venturi feed system, by a vibratory feeder. Micronisation was achieved by particle collisions brought about by compressed gas (nitrogen) forced through angled nozzles in the jet mill chamber. Particles of different sizes develop different speeds and momentum and as the particle size is reduced the particles spiral towards the centre of the jet mill and exit via an exhaust into a collection bin. The process parameters that control the particle size, in addition to the inherent properties of the compound to be micronised, are the feed rate, grinding pressure and venturi pressure and these are summarised in Table 2 below.

Another data set relates to JAK. To be noted: cell-based assay, WO 2010/085684 page 314; cited from earlier work.

Each structure is given as a SMILES string. Counter-ions that a name gives are not always drawn. A value given as a limit tells only on which side of the number the result lay.

Regarding `Cc1cnc(Nc2cc(C)c(C)c(C)c2)nc1Nc1ccc2oc(=O)[nH]c2c1` [hemi-fumarate salt, 5-((5-methyl-2-((3,4,5-trimethylphenyl)-amino)pyrimidin-4-yl)amino)benzo[d]oxazol-2(3H)-one hemi-fumarate Salt], in data set [1] (at 50 minutes, 0.1 M acetate buffer pH 4.5, 37° C., micronized material), the “increase in solubility compared to free base” value is on record as ~6 fold. In data set [1] (general statement, compared to Compound (I) free base), the aqueous solubility entry is “high aqueous solubility”. The IC50 is the midpoint of a concentration-inhibition curve. With `Cc1cnc(Nc2cc(C)c(C)c(C)c2)nc1Nc1ccc2oc(=O)[nH]c2c1` [Compound (I), 5-((5-methyl-2-((3,4,5-trimethylphenyl)-amino)pyrimidin-4-yl)amino)benzo[d]oxazol-2(3H)-one], in the data set on JAK, the IC50 was < 500 nM.
